Several values for one entry are separate records, joined by “and”; a condition that tells them apart may be missing. Equal entries are not always repeated.
Molecular target: T1, DrOTOP1 A388W (Danio rerio, UniProt Q7ZWK8, A388W)
T1 construct: A previously generated codon-optimized full-length DrOTOP1[8]; (UniProt: Q7ZWK8) construct; expressed in transfected cells; host or cells: HEK-293 (CRL-1573, ATCC)
T1 sequence (Q7ZWK8 1-586 A388W): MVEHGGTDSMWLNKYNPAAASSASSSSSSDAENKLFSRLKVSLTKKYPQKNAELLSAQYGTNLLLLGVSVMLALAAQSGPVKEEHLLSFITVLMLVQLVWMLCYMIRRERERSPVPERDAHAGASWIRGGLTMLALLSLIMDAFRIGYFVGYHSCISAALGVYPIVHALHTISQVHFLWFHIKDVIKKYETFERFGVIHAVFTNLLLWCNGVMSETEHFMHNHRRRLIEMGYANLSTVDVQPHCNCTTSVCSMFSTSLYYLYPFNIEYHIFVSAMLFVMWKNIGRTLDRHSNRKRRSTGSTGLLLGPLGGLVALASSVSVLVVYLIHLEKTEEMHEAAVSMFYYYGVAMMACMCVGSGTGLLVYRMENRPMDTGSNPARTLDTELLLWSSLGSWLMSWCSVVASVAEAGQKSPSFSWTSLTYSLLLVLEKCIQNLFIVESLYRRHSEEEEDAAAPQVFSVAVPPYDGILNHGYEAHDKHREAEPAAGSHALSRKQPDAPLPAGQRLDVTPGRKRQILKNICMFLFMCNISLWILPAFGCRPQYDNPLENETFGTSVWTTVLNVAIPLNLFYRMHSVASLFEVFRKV
Test: Whole-cell patch-clamp, inhibition of acid-evoked currents, DrOTOP1 A388W
Format: cell-based, zebrafish (Danio rerio)
Settings: single cells
Description: To functionally test the significance of the two binding sites identified by cryo-EM, we generated point mutations of DrOTOP1 using the binding poses and conformational changes observed in DrOTOP1_C2.2 to guide our mutations. As per the binding pose that best fits our cryo-EM density, C2.2 forms the following interactions in the outer site: hydrophobic packing against many non-polar residues W126, G130, M133, L134, F271, F570, and M573, and π-stacking with W532 (Fig. 5A). In addition, C2.2 could potentially form H-bonds with E267, if the sidechain is protonated or a water bridge is present, and with H574 if it moves closer (Fig. 5A). Likewise, C2.36 presents a heterocyclic nitrogen that can potentially form a H-bond with E267, similarly, provided a protonation or water bridge is present (Fig. 5B). In addition, C2.36 forms a T-shaped π-stacking interaction with H574, whose sidechain has rotated 90 degrees (compared to DrOTOP1_apo), presumably to accommodate the interaction (Fig. 5B). […]
Whole-cell patch-clamp recording was performed as previously described[6],[22],[25]. Recordings were made with an Axopatch 200B amplifier, digitized with a Digidata 1322a 16-bit data acquisition system, acquired with pClamp 8.2 and analyzed with Clampfit 10 (Molecular Devices). […]

## O=C(/C(=N\O)c1ccccc1)c1ccccc1 [C11, benzil monoxime]
100 µM
  Inhibition of currents: 53.4353% and 72.6918% and 53.0458% and 57.2816% and 61.0959%
  inhibition at 100 µM: 72.4%
